Values quoted from earlier work, collected in patent EP1923060A1, “Combinations of a sphingolipid and an HMG-CoA reductase inhibitor for treating hypercholesterolemia” (Nederlandse Organisatie voor …, priority 2006, dated 2008).

Key:
C57bI mice = details: intraperitoneal injection; US 2004/0171557
[1] = system: galactosamine-injured primary rat hepatocytes; details: Kim et al., Phytotherapy Res. (2000) 14:448-451
[2] = in humans

In the case of glucocerebroside, the liver fat content (C57bI mice) is given as “may be reduced”.

In the case of `CCCCCCCCC/C=C\CC/C=C/[C@@H](O)[C@H](CO[C@@H]1O[C@H](CO)[C@@H](O)[C@H](O)[C@H]1O)NC(=O)CCCCCCCCCCCCCCC` [LCC, 1-O-(β-D-glucopyranosyl)-(2S,3R,4E,8Z)-2-N-palmityloctadecasphinga-4,8-diene], the “release into the culture medium of GPT and SDH” value [1] is listed as “reduce the release”.

For `CCCCCCCCCCCCCC[C@@H](O)[C@@H](O)[C@@H](N)CO` [phytosphingosine], the “plasma (VLDL and LDL) cholesterol and triglyceride levels” value [2] is listed as “demonstrated decisively”.
